1 molecule from paper PMC2787625, “A Neuronal Acetylcholine Receptor Regulates the Balance of Muscle Excitation and Inhibition in Caenorhabditis elegans” (PLoS Biology, 2009) can be followed below.

Read-outs that look alike come from different tables or passages of the source.

Assay [1] relates to ACR-2R (ACR-2-containing acetylcholine receptor: UNC-38, UNC-63, ACR-12, ACR-2, ACR-3). The note with it: agonist; 1 mM external CaCl2; 500 µM and 1 mM points excluded from fit (open-channel block); n2420 gain-of-function subunit ACR-2(V13′M).
For assay [2] the test system is unchanged. The note with it: agonist; 1 mM external CaCl2; 500 µM and 1 mM points excluded from fit (open-channel block).

What is called EC50 is the concentration needed to bring the measured effect to its halfway point. With `CC(=O)OCC[N+](C)(C)C` [acetylcholine], the concentration for a half-maximal effect (EC50) in assay [1] was determined as 17.8 ± 1.4 µM; in assay [2], 14.1 ± 1.2 µM.
